Results as given in patent publication US20130261024A1, “System for Identifying Connections Between Perturbagens and Genes Associated with a Skin Hyperpigmentation Condition” (THE PROCTER & GAMBLE COMPANY, priority 2012, published 2013).

What was measured:
[1] = test system: teleomerized human keratinocytes (tKC); assay: C-map query with the Retinoic Acid/Keratinocyte 200 benchmark signature; assay type: cell-based; settings: Retinoic Acid Keratinocyte RA-200 signature
Description: (§1) Individual experiments (referred to as batches) generally comprise 30 to 96 samples analyzed using Affymetrix GeneChip® technology platforms, containing 6 replicates of the vehicle control (e.g., DSMO), 2 replicate samples of a positive control that gives a strong reproducible effect in the cell type used, and samples of the test material/perturbagen. Replication of the test material is done in separate batches due to batch effects. In vitro testing was performed in 6-well plates to provide sufficient RNA for GeneChip® analysis (2-4 μg total RNA yield/well).
(§2) Human telomerized keratinocytes (tKC) were obtained from the University of Texas, Southwestern Medical Center, Dallas, Tex. tKC cells were grown in EpiLife® media with 1× Human Keratinocyte Growth Supplement (Invitrogen, Carlsbad, Calif.) on collagen I coated cell culture flasks and plates (Becton Dickinson, Franklin Lakes, N.J.). Keratinocytes were seeded into 6-well plates at 20,000 cells/cm^2 24 hours before chemical exposure. […]
(a) Tert-keratinocytes (tKC) RA Signatures. […] Cells were treated with 1 uM tRA for 6 hr, tested in triplicate, with triplicate DMSO controls, and analyzed on HG-U133A GeneChips. […]

hyperpigmented spots = assay: 9-week randomized, double-blind, vehicle-controlled, split-face tone benefit clinical study; assay type: in vivo, Chinese females; settings: 0.05% in SC-99 vehicle
Excerpt: This Example provides evidence of the advantages of using composite signatures and illustrates clinical affirmation of the C-map model for predicting efficacy of skin-lightening agents. This Example supports embodiments related to composite signatures (as described at the end of Example 3). An illustrative “Skin Tone” Signature developed from a genomics study using a composite skin-lightening benchmark agent signature is derived from Niacinamide, Hexamidine, Sepiwhite, and NAG. The signature is used to query C-map and generate a list of potential skin-lightening agents. A top hit, Chlorhexidine Diactate (CD) is entered into clinical testing for confirmation of efficacy. The control for clinical efficacy is a 5% Niacinamide+1% Sepiwhite formulation in the control vehicle.
Primary endpoints are changes in color spot area fraction (image analysis) and melanin spot area fraction (NC2) from baseline. Secondary endpoints are changes from baseline in L*a*b (color image analysis), mean melanin gray scale (NC2), and melanin evenness (NC2). Texture area fraction and pore area fraction are also evaluated to explore impact on other aspects relating to overall skin tone. […] Statistically significant superiority to the high efficacy benchmark skin active agent to vehicle performance is the clinical success criteria.
Study Design: The experimental protocol included a 9-week (1-week preconditioning & 8-week treatment), randomized, double-blind, round robin, vehicle-controlled, split-face tone benefit study. The subject population included 330 Chinese females, 25-55 years old with hyperpigmented spots. 318 subjects completed the entire study. […] Olay Complete SPF 15 UV Moisturizing Lotion is concomitantly used during pre-conditioning and treatment. 0.5 g each test product per half-face (forehead to jaw line; ˜4 mg/cm^2) is dosed 2× a day (morning/evening). Color SAF and treatment area, Melanin SAF, gray scale, evenness by NC2, and additional measurement of Fine Lines and Wrinkle and Texture are by REAL 3.01A. Data collection points include baseline, and ends of weeks 4, 6 and 8. The tested hypothesis is that there is no difference in clinical endpoint versus the benchmark composition treatment. Study site is Kuntai Clinical Center, Beijing, China and study time frame is February 2010 (pre-conditioning) to April 2010.

[2] = test system: tert-Keratinocyte (tKC) cells; assay: C-map query with the composite "skin tone" benchmark signature (Niacinamide, Sepiwhite, NAG, Hexamidine); assay type: cell-based, human; settings: composite signature of Example 3
Description: as §1
as §2, with “exposure. Human skin fibroblasts (BJ cell line from ATCC, Manassas, Va.) were grown in Eagle's Minimal Essential Medium (ATCC) supplemented with 10% fetal bovine serum (HyClone, Logan, Utah) in normal cell culture flasks and plates (Corning, Lowell, Mass.). BJ fibroblasts were seeded into 6-well plates at 12,000 cells/cm^2 24 hours before chemical exposure.” for “exposure.”

CC1=C(/C=C/C(C)=C/C=C/C(C)=C/C(=O)O)C(C)(C)CCC1 [Retinoic acid, all-trans-retinoic acid]
average C-map score [1]: highest score of the materials tested

CC(=O)O.CC(=O)O.NC(=N\CCCCCC/N=C(N)/N=C(\N)Nc1ccc(Cl)cc1)/N=C(\N)Nc1ccc(Cl)cc1 [CD, Chlorhexidine Diacetate]
Pore area fraction (hyperpigmented spots; compared to vehicle, week 8): superior efficacy | Texture area fraction (hyperpigmented spots; compared to vehicle, week 8): superior efficacy | spot area fraction color test (hyperpigmented spots; compared to vehicle, week 8): significantly fewer spots | spot area fraction NC2 test (hyperpigmented spots; compared to vehicle, weeks 6 and 8): significantly reduced fraction | Basal skin tone (hyperpigmented spots; versus vehicle, week 8): superiority | NC2 Melanin evenness test (hyperpigmented spots; versus vehicle, weeks 6 and 8): superiority to the vehicle | connectivity to tone composite benchmark signature query [2]: top connectivity hit
